Laboratory results from BigSolDB 2.1.

Clc1ccc2c(Cl)ccnc2c1
solubility (mole fraction) (in THF, 299.4 K): 0.0683 | solubility (mole fraction) (in THF, 303.2 K): 0.0701 | solubility (mole fraction) (in THF, 309.1 K): 0.0745 | solubility (mole fraction) (in THF, 313.3 K): 0.081 | solubility (mole fraction) (in THF, 318.1 K): 0.0887 | solubility (mole fraction) (in THF, 323.2 K): 0.1 | solubility (mole fraction) (in THF, 328.3 K): 0.119 | solubility (mole fraction) (in THF, 333.4 K): 0.14 | solubility (mole fraction) (in acetone, 299.2 K): 0.0591 | solubility (mole fraction) (in acetone, 303.2 K): 0.0614 | solubility (mole fraction) (in acetone, 309.1 K): 0.0658 | solubility (mole fraction) (in acetone, 313.3 K): 0.0725 | solubility (mole fraction) (in acetone, 318.1 K): 0.0818 | solubility (mole fraction) (in acetone, 323.2 K): 0.0954 | solubility (mole fraction) (in acetone, 328.3 K): 0.113 | solubility (mole fraction) (in acetonitrile, 299.8 K): 0.00603 | solubility (mole fraction) (in acetonitrile, 303.2 K): 0.00814 | solubility (mole fraction) (in acetonitrile, 308.1 K): 0.0127 | solubility (mole fraction) (in acetonitrile, 313.3 K): 0.0208 | solubility (mole fraction) (in acetonitrile, 318.1 K): 0.0307 | solubility (mole fraction) (in acetonitrile, 323.2 K): 0.0489 | solubility (mole fraction) (in acetonitrile, 328.3 K): 0.0788 | solubility (mole fraction) (in acetonitrile, 333.4 K): 0.13 | solubility (mole fraction) (in ethanol, 299.8 K): 0.0113 | solubility (mole fraction) (in ethanol, 303.2 K): 0.0145 | solubility (mole fraction) (in ethanol, 308.1 K): 0.0224 | solubility (mole fraction) (in ethanol, 313.3 K): 0.0364 | solubility (mole fraction) (in ethanol, 318.1 K): 0.0564 | solubility (mole fraction) (in ethanol, 323.2 K): 0.0886 | solubility (mole fraction) (in ethanol, 328.3 K): 0.135 | solubility (mole fraction) (in ethanol, 333.4 K): 0.208 | solubility (mole fraction) (in water, 298 K): 2.84e-05 | solubility (mole fraction) (in water, 303.3 K): 2.9e-05 | solubility (mole fraction) (in water, 308.2 K): 3.01e-05 | solubility (mole fraction) (in water, 313.1 K): 3.21e-05 | solubility (mole fraction) (in water, 318.3 K): 3.45e-05 | solubility (mole fraction) (in water, 323.3 K): 3.88e-05 | solubility (mole fraction) (in water, 327.7 K): 4.2e-05 | solubility (mole fraction) (in water, 333.3 K): 4.85e-05
